According to the supplement of paper PMC11208160:

Assay: recombinant UMI read abundance after kanamycin selection (control-corrected) (log10(CPM+1)); higher = more efficient recombination; extreme values may be limits of the assay; sequences stand for … in AGTGCAGAGAAAATCGGCCAGTTTTCTCTGCCTGCAGTCCGCATGCCGTGGGACCCCTTGGGTTCTAACCTGTTGCCTAGATTTATGCAGCGGACTGCCTTTCTCCCAAAGTGATAAACCGG…AGGTTGGTTTCACT; site = the 11-nt donor
How it was run: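 Sequencing read counts were converted to CPM, averaged over two replicates and scaled by control-derived factors. Results are given as log10(CPM+1). The reads covered the donor–target junction of recombinant UMIs from a pooled Escherichia coli screen of donor and donor-binding-loop pairs for the IS621 bridge recombinase.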
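Also: IS621 bridge recombinase in Escherichia coli cells against a fixed T5 target plasmid.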

| Sequence | recombinant UMI read abundance (log10) |
| --- | --- |
| GTTAGAACATGGACCGGTTTTCCCGGTAATCCGTATTTGGC (site CTTAGAACTGC) | 0 |
| GTTAGAACATGGACCGGTTTTCCCGGTAATCCGTATTTGGC (site GATAGAACTGC) | 0 |
| GTTAGAACATGGACCGGTTTTCCCGGTAATCCGTATTTGGC (site GCTAGAACTGC) | 0 |
| GTTAGAACATGGACCGGTTTTCCCGGTAATCCGTATTTGGC (site GGTAGAACTGC) | 0 |
| GTTAGAACATGGACCGGTTTTCCCGGTAATCCGTATTTGGC (site GTAAGAACTGC) | 0 |
| GTTAGAACATGGACCGGTTTTCCCGGTAATCCGTATTTGGC (site GTCAGAACTGC) | 0 |
| GTTAGAACATGGACCGGTTTTCCCGGTAATCCGTATTTGGC (site GTGAGAACTGC) | 0 |
| GTTAGAACATGGACCGGTTTTCCCGGTAATCCGTATTTGGC (site GTTAAAACTGC) | 0 |
| GTTAGAACATGGACCGGTTTTCCCGGTAATCCGTATTTGGC (site GTTACAACTGC) | 0 |
| GTTAGAACATGGACCGGTTTTCCCGGTAATCCGTATTTGGC (site GTTAGAACTAC) | 0.00468 |
| GTTAGAACATGGACCGGTTTTCCCGGTAATCCGTATTTGGC (site GTTAGAACTCC) | 0.0522 |
| GTTAGAACATGGACCGGTTTTCCCGGTAATCCGTATTTGGC (site GTTAGAACTGA) | 0 |
| GTTAGAACATGGACCGGTTTTCCCGGTAATCCGTATTTGGC (site GTTAGAACTGC) | 1.59 |
| GTTAGAACATGGACCGGTTTTCCCGGTAATCCGTATTTGGC (site GTTAGAACTGG) | 0 |
| GTTAGAACATGGACCGGTTTTCCCGGTAATCCGTATTTGGC (site GTTAGAACTGT) | 0 |
| GTTAGAACATGGACCGGTTTTCCCGGTAATCCGTATTTGGC (site GTTAGAACTTC) | 0 |
| GTTAGAACATGGACCGGTTTTCCCGGTAATCCGTATTTGGC (site GTTAGACCTGC) | 0 |
| GTTAGAACATGGACCGGTTTTCCCGGTAATCCGTATTTGGC (site GTTAGAGCTGC) | 0.0184 |
| GTTAGAACATGGACCGGTTTTCCCGGTAATCCGTATTTGGC (site GTTAGATCTGC) | 0.83 |
| GTTAGAACATGGACCGGTTTTCCCGGTAATCCGTATTTGGC (site GTTAGCACTGC) | 0.506 |
| GTTAGAACATGGACCGGTTTTCCCGGTAATCCGTATTTGGC (site GTTAGGACTGC) | 0.0154 |
| GTTAGAACATGGACCGGTTTTCCCGGTAATCCGTATTTGGC (site GTTAGTACTGC) | 0 |
| GTTAGAACATGGACCGGTTTTCCCGGTAATCCGTATTTGGC (site GTTATAACTGC) | 1.54 |
| GTTAGAACATGGACCGGTTTTCCCGGTAATCCGTATTTGGC (site GTTCGAACTGC) | 0 |
| GTTAGAACATGGACCGGTTTTCCCGGTAATCCGTATTTGGC (site GTTGGAACTGC) | 0.696 |

| Sequence | recombinant UMI read abundance (log10) |
| --- | --- |
| GTTAGAACATGGACCGGTTTTCCCGGTAATCCGTATTTGGC (site GTTTGAACTGC) | 0 |
| GTTAGAACATGGACCGGTTTTCCCGGTAATCCGTATTTGGC (site TTTAGAACTGC) | 0 |
| GTTAGAACATGGACCGGTTTTCCCGGTAATCCGTATTTGGT (site GTTAGAACTAC) | 0.908 |
| GTTAGAACATGGACCGGTTTTCCCGGTAATCCGTATTTGGT (site GTTAGAACTCC) | 0.0129 |
| GTTAGAACATGGACCGGTTTTCCCGGTAATCCGTATTTGGT (site GTTAGAACTGC) | 0 |
| GTTAGAACATGGACCGGTTTTCCCGGTAATCCGTATTTGGT (site GTTAGAACTTC) | 0.0194 |
| GTTAGACCATGGACCGGTTTTCCCGGTAATCCGTATTTGGA (site GTTAGACCTTC) | 0.00772 |
| GTTAGACCATGGACCGGTTTTCCCGGTAATCCGTATTTGGC (site GTTAGAACTGC) | 0 |
| GTTAGACCATGGACCGGTTTTCCCGGTAATCCGTATTTGGC (site GTTAGACCTGC) | 0 |
| GTTAGACCATGGACCGGTTTTCCCGGTAATCCGTATTTGGC (site GTTAGAGCTGC) | 0 |
| GTTAGACCATGGACCGGTTTTCCCGGTAATCCGTATTTGGC (site GTTAGATCTGC) | 0 |
| GTTAGAGCATGGACCGGTTTTCCCGGTAATCCGTATTTGGC (site GTTAGAACTGC) | 2.02 |
| GTTAGAGCATGGACCGGTTTTCCCGGTAATCCGTATTTGGC (site GTTAGACCTGC) | 0 |
| GTTAGAGCATGGACCGGTTTTCCCGGTAATCCGTATTTGGC (site GTTAGAGCTGC) | 2.22 |
| GTTAGAGCATGGACCGGTTTTCCCGGTAATCCGTATTTGGC (site GTTAGATCTGC) | 1.51 |
| GTTAGGACATGGACCGGTTTTCCCGGTAATCCGTATTTGGC (site GTTAGAACTGC) | 1.16 |
| GTTAGGACATGGACCGGTTTTCCCGGTAATCCGTATTTGGC (site GTTAGCACTGC) | 0 |
| GTTAGGACATGGACCGGTTTTCCCGGTAATCCGTATTTGGC (site GTTAGGACTGC) | 2.84 |
| GTTAGGACATGGACCGGTTTTCCCGGTAATCCGTATTTGGC (site GTTAGTACTGC) | 0 |
| GTTATTCCATGGACCGGTTTTCCCGGTAATCCGTATTTGGT (site GTTATTCCTAC) | 0.469 |
| GTTATTCCATGGACCGGTTTTCCCGGTAATCCGTATTTGGT (site GTTCTTCCTAC) | 0 |
| GTTATTCCATGGACCGGTTTTCCCGGTAATCCGTATTTGGT (site GTTGTTCCTAC) | 0.00973 |
| GTTATTCCATGGACCGGTTTTCCCGGTAATCCGTATTTGGT (site GTTTTTCCTAC) | 0 |
| GTTCACGCATGGACCGGTTTTCCCGGTAATCCGTATTTGTT (site GTTCACGCTAA) | 1 |
| GTTCATACATGGACCGGTTTTCCCGGTAATCCGTATTTGTG (site GTTCATACTCA) | 0.505 |

| Sequence | recombinant UMI read abundance (log10) |
| --- | --- |
| GTTCCGGCATGGACCGGTTTTCCCGGTAATCCGTATTTGCC (site GTTCCGGCTGG) | 0 |
| GTTCGAGCATGGACCGGTTTTCCCGGTAATCCGTATTTGAA (site GTTCGAGCTTA) | 0.307 |
| GTTCGAGCATGGACCGGTTTTCCCGGTAATCCGTATTTGAA (site GTTCGAGCTTC) | 0 |
| GTTCGAGCATGGACCGGTTTTCCCGGTAATCCGTATTTGAA (site GTTCGAGCTTG) | 0 |
| GTTCGAGCATGGACCGGTTTTCCCGGTAATCCGTATTTGAA (site GTTCGAGCTTT) | 1.41 |
| GTTCGAGCATGGACCGGTTTTCCCGGTAATCCGTATTTGCT (site GTTCGAGCTAG) | 1.9 |
| GTTCGAGCATGGACCGGTTTTCCCGGTAATCCGTATTTGCT (site GTTCGAGCTCG) | 0.664 |
| GTTCGAGCATGGACCGGTTTTCCCGGTAATCCGTATTTGCT (site GTTCGAGCTGG) | 0.928 |
| GTTCGAGCATGGACCGGTTTTCCCGGTAATCCGTATTTGCT (site GTTCGAGCTTG) | 1.03 |
| GTTCGAGCATGGACCGGTTTTCCCGGTAATCCGTATTTGGA (site GTTCGAGCTTA) | 0.635 |
| GTTCGAGCATGGACCGGTTTTCCCGGTAATCCGTATTTGGA (site GTTCGAGCTTC) | 0.499 |
| GTTCGAGCATGGACCGGTTTTCCCGGTAATCCGTATTTGGA (site GTTCGAGCTTG) | 0 |
| GTTCGAGCATGGACCGGTTTTCCCGGTAATCCGTATTTGGA (site GTTCGAGCTTT) | 0.942 |
| GTTCGATCATGGACCGGTTTTCCCGGTAATCCGTATTTGCC (site GTTCGATCTGG) | 1.92 |
| GTTCGTACATGGACCGGTTTTCCCGGTAATCCGTATTTGCA (site GTTCGTACTTG) | 1.64 |
| GTTCGTACATGGACCGGTTTTCCCGGTAATCCGTATTTGTT (site GTTCGTACTAA) | 0.0105 |
| GTTCGTGCATGGACCGGTTTTCCCGGTAATCCGTATTTGCA (site GTTCGAGCTTG) | 0.585 |
| GTTCGTGCATGGACCGGTTTTCCCGGTAATCCGTATTTGCA (site GTTCGCGCTTG) | 0.0038 |
| GTTCGTGCATGGACCGGTTTTCCCGGTAATCCGTATTTGCA (site GTTCGGGCTTG) | 0.36 |
| GTTCGTGCATGGACCGGTTTTCCCGGTAATCCGTATTTGCA (site GTTCGTGCTTG) | 1.96 |
| GTTGAGACATGGACCGGTTTTCCCGGTAATCCGTATTTGAC (site GTTGAGACTGT) | 2.94 |
| GTTGCTGCATGGACCGGTTTTCCCGGTAATCCGTATTTGAG (site GTTGCTGCTCT) | 0.388 |
| GTTGGACCATGGACCGGTTTTCCCGGTAATCCGTATTTGCC (site GTTGGACCTGG) | 0 |
| GTTGGCCCATGGACCGGTTTTCCCGGTAATCCGTATTTGAG (site GTTGGCCCTCT) | 0.0112 |
| GTTGGGACATGGACCGGTTTTCCCGGTAATCCGTATTTGGC (site GTTGGGACTGC) | 1.53 |
